Reference: patent publication US20200071351A1, “TACCALONOLIDE MICROTUBULE STABILIZERS” (THE BOARD OF REGENTS OF THE UNIVERSITY OF TEXAS SYSTEM, priority 2016, published 2020)
Where two headings read alike, the source gives them in different places.

Key:
[1] = system: HeLa cells; test: Inhibition of cellular proliferation, SRB assay, HeLa cells; assay type: cell-based; conditions: for activity at concentrations as high as 30,000 nM: up to 30,000 nM
Procedure: The ability of the compounds to initiate cytotoxicity was also determined. […] The determination of IC50 values was performed on taccalonolide material after NMR analysis and subsequent lyophilization. Ethanol or DMSO was used as the vehicle for all cellular studies.
The antiproliferative potencies of the taccalonolides were evaluated in HeLa cells using the SRB assay.

[2] = system: HeLa cells; test: Mitotic spindle structures, indirect immunofluorescence; assay type: cell-based; conditions: 18 h, 125 nM AF, 200 nM AI, 35 nM AJ
Procedure: Cellular microtubules in interphase and mitotic HeLa cells were visualized using indirect immunofluorescence techniques as previously described (Tinley et al., 2003). […] Representative images of interphase and mitotic cells were acquired using a Nikon Eclipse 80i fluorescence microscope and compiled using NIS Elements AR 3.0 software.
The effects of the taccalonolides on mitotic spindle structures were evaluated to test whether they caused mitotic spindle defects leading to cell cycle arrest. β-tubulin and DNA were visualized in HeLa cells by indirect immunofluorescence and DAPI staining, respectively. […] These mitotic cells contained multiple abnormal mitotic spindles, which is another common effect of microtubule stabilizing agents (FIGS. 4A-D).
The microtubule structures in mitotic cells were visualized by indirect immunofluorescence using a β-tubulin antibody.

[3] = HeLa cells, SRB assay, parent taccalonolide, read-out: IC50
[4] = Homo sapiens, HeLa, HeLa cells, SRB assay, parent taccalonolide, read-out: IC50

| Molecule | IC50 [1, 3] | IC50 [1, 4] | other results |
| --- | --- | --- | --- |
| CC(=O)O[C@H]1[C@@H]2[C@H]([C@H](C)C=C3OC(=O)[C@@](C)(O)[C@@]32C)[C@]2(C)[C@@H]1C1=C(O)C(=O)[C@H]3C[C@@H]4O[C@@H]4[C@H](OC(C)=O)[C@]3(C)[C@H]1[C@H](OC(C)=O)[C@@H]2OC(C)=O [Taccalonolide H2] | 0.73 µM | – | more potent than taccalonolide A ([1]; HeLa IC50 ratio): 7.4 fold |
| Taccalonolide AQ | > 30 µM | – | activity at concentrations as high as 30,000 nM ([1]; HeLa cells): little to no activity |
| Taccalonolide AH | 0.158 µM | – | – |
| CC(=O)O[C@@H]1[C@H]2[C@H]3C([C@H](OC(C)=O)[C@H](OC(C)=O)[C@]2(C)[C@@H]2[C@@H]1[C@]1(C)C(=C[C@@]2(C)OO)OC(=O)[C@@]1(C)O)[C@]1(C)[C@H](C[C@@H]2O[C@@H]2[C@@H]1OC(C)=O)C(=O)[C@@H]3O (stereo partly drawn) [Taccalonolide AC] | – | – | activity at concentrations as high as 50,000 nM ([1]; HeLa cells, up to 50,000 nM): no activity |
| CC(=O)O[C@H]1[C@H]2[C@H]([C@@H]3[C@@H](O)[C@@H]4[C@H]([C@H](C)C=C5OC(=O)[C@@](C)(O)[C@@]54C)[C@@]3(C)[C@H]1OC(C)=O)[C@@H](O)C(=O)[C@H]1C[C@@H]3O[C@@H]3[C@H](OC(C)=O)[C@]21C [Taccalonolide B, reference compound] | – | 3.12 µM | – |
| Taccalonolide AR | > 30 µM | – | activity at concentrations as high as 30,000 nM ([1]; HeLa cells): little to no activity |
| Taccalonolide AP | > 30 µM | – | – |
| CC(=O)O[C@H]1C[C@H]2[C@H]([C@@H]3[C@@H](O)[C@@H]4[C@H]([C@H](C)C=C5OC(=O)[C@@](C)(O)[C@@]54C)[C@]31C)[C@@H](O)C(=O)[C@H]1C[C@@H]3O[C@@H]3[C@H](OC(=O)CC(C)C)[C@@]12C [Taccalonolide AI] | 0.047 µM | – | effect on mitotic spindle structures [2]: mitotic arrest of cells with multiple abnormal mitotic spindles |
| Taccalonolide AS | > 10 µM | – | activity at concentrations as high as 30,000 nM ([1]; HeLa cells): little to no activity |
| CC(=O)O[C@@H]1[C@H]2[C@@H]3C(=O)C(O)=C4C[C@@H]5O[C@@H]5[C@H](OC(C)=O)[C@]4(C)[C@H]3[C@H](OC(C)=O)[C@H](OC(C)=O)[C@]2(C)[C@@H]2[C@@H]1[C@]1(C)C(=C[C@H]2C)OC(=O)[C@@]1(C)O [Taccalonolide AD] | 3.48 µM | – | – |
| CC(=O)O[C@H]1C[C@H]2[C@H]([C@@H]3[C@H]4OC(=O)[C@@](C)(O)[C@@]5(C)C(=O)C[C@@H](C)[C@@H]([C@@H]45)[C@]31C)[C@@H](O)C(=O)[C@H]1C[C@@H]3O[C@@H]3[C@H](OC(C)=O)[C@@]12C [Taccalonolide AK] | > 30 µM | – | activity at concentrations as high as 30,000 nM ([1]; HeLa cells): no activity |
| CC(=O)O[C@@H]1[C@H]2[C@H]3[C@H]([C@H](OC(C)=O)[C@H](OC(C)=O)[C@]2(C)[C@@H]2[C@@H]1[C@]1(C)C(=C[C@H]2C)OC(=O)[C@@]1(C)O)[C@@]1(C)[C@@H](OC(C)=O)[C@H]2O[C@H]2C[C@]1(O)C(=O)[C@@H]3OC(C)=O [Taccalonolide AA] | – | 0.0323 µM | – |
| CC(=O)O[C@@H]1[C@H]2[C@@H]3[C@@H](O)C(=O)[C@H]4C[C@@H]5O[C@@H]5[C@H](OC(C)=O)[C@]4(C)[C@H]3C[C@H](OC(C)=O)[C@]2(C)[C@@H]2[C@@H]1[C@]1(C)C(=C[C@H]2C)OC(=O)[C@@]1(C)O [Taccalonolide E, reference compound] | – | 39.5 µM | – |
| CC(=O)O[C@H]1C[C@H]2[C@H]([C@@H]3[C@@H](O)[C@@H]4[C@H]([C@H](C)[C@@H]5O[C@@]56OC(=O)[C@@](C)(O)[C@]46C)[C@]31C)[C@@H](O)C(=O)[C@H]1C[C@@H]3O[C@@H]3[C@H](OC(C)=O)[C@@]12C [N-epo] | – | – | IC50 ([1]; HeLa cells, SRB assay, C22-C23 epoxide of the taccalonolide in the same line, read-out: Corresponding Epoxide IC50): 0.011 µM |
| CC(=O)O[C@@H]1[C@H]2[C@@H]3[C@@H](O)C(=O)[C@H]4C[C@@H]5O[C@@H]5[C@H](OC(=O)C(C)C)[C@]4(C)[C@H]3C[C@H](OC(C)=O)[C@]2(C)[C@@H]2[C@@H]1[C@]1(C)C(=C[C@H]2C)OC(=O)[C@@]1(C)O [Taccalonolide S, reference compound] | – | 0.009 µM | – |
| CC(=O)O[C@H]1[C@H]2[C@H]([C@@H]3[C@H]4OC(=O)[C@@](C)(O)[C@@]5(C)C(=O)C[C@@H](C)[C@@H]([C@@H]45)[C@@]3(C)[C@H]1OC(C)=O)[C@@H](O)C(=O)[C@H]1C[C@@H]3O[C@@H]3[C@H](OC(C)=O)[C@]21C [Taccalonolide AO] | > 30 µM | – | activity at concentrations as high as 30,000 nM ([1]; HeLa cells): no activity |
| Taccalonolide AL | 18 µM | – | – |
| Taccalonolide AG | 0.032 µM | – | – |
| CC(=O)O[C@H]1C[C@H]2[C@H]([C@@H]3[C@@H](O)[C@@H]4[C@H]([C@H](C)C=C5OC(=O)[C@@](C)(O)[C@@]54C)[C@]31C)[C@@H](O)C(=O)[C@H]1C[C@@H]3O[C@@H]3[C@H](O)[C@@]12C [Taccalonolide AN] | 1 µM | – | – |
| CC(=O)O[C@H]1[C@H]2[C@H]([C@@H]3[C@@H](O)[C@@H]4[C@H]([C@H](C)C=C5OC(=O)[C@@](C)(O)[C@@]54C)[C@@]3(C)[C@H]1OC(C)=O)[C@@H](O)C(=O)[C@@]1(O)C[C@@H]3O[C@@H]3[C@H](OC(C)=O)[C@]21C [Taccalonolide AB] | – | 2.77 µM | – |
| CC(=O)O[C@H]1C[C@H]2[C@H]([C@@H]3[C@@H](O)[C@@H]4[C@H]([C@H](C)C=C5OC(=O)[C@@](C)(O)[C@@]54C)[C@]31C)[C@@H](O)C(=O)[C@H]1C[C@@H]3O[C@@H]3[C@H](OC(C)=O)[C@@]12C [Taccalonolide N, reference compound] | – | 8.5 µM | – |
| CC(=O)O[C@@H]1[C@H]2[C@@H]3[C@@H](OC(C)=O)C(=O)[C@@]4(O)C[C@@H]5O[C@@H]5[C@H](OC(=O)CC(C)C)[C@]4(C)[C@H]3C[C@H](OC(C)=O)[C@]2(C)[C@@H]2[C@@H]1[C@]1(C)C(=C[C@H]2C)OC(=O)[C@@]1(C)O [Taccalonolide T, reference compound] | – | 0.335 µM | – |
| 5α-hydroxy-taccalonolide A [Taccalonolide Z] | 0.12 µM | – | – |
| CC(=O)O[C@@H]1[C@H]2[C@@H]3[C@@H](OC(C)=O)C(=O)[C@@]4(O)C[C@@H]5O[C@@H]5[C@H](OC(C)=O)[C@]4(C)[C@H]3C[C@H](OC(C)=O)[C@]2(C)[C@@H]2[C@@H]1[C@]1(C)C(=C[C@H]2C)OC(=O)[C@@]1(C)O [Taccalonolide R, reference compound] | – | 13.1 µM | IC50 ([1]; Homo sapiens, HeLa, read-out: IC50): 13 µM |
| CC(=O)O[C@@H]1[C@H]2[C@H]3[C@H]([C@H](OC(C)=O)[C@H](OC(C)=O)[C@]2(C)[C@@H]2[C@@H]1[C@]1(C)C(=C[C@H]2C)OC(=O)[C@@]1(C)O)[C@]1(C)[C@H](C[C@@H]2O[C@@H]2[C@@H]1OC(C)=O)C(=O)[C@@H]3O [Taccalonolide A, reference compound] | – | 5.38 µM | – |
| CC(=O)O[C@H]1C[C@H]2[C@H]([C@@H]3[C@@H](O)[C@@H]4[C@H]([C@H](C)C=C5OC(=O)[C@@](C)(O)[C@@]54C)[C@]31C)[C@@H](O)C(=O)[C@@]1(O)C[C@@H]3O[C@@H]3[C@H](OC(=O)CC(C)C)[C@]21C [Taccalonolide AM] | 1.2 µM | – | – |
| CC(=O)O[C@@H]1[C@H]2[C@H]3[C@H]([C@H](OC(C)=O)[C@H](OC(C)=O)[C@]2(C)[C@@H]2[C@@H]1[C@]1(C)C(=C[C@H]2C)OC(=O)[C@@]1(C)O)[C@]1(C)[C@H](C[C@@H]2O[C@@H]2[C@@H]1OC(C)=O)C(=O)C3(O)O [Taccalonolide AE] | 5.01 µM | – | – |
| CC(=O)O[C@H]1[C@H]2[C@@H](C(=O)[C@H](O)[C@H]3C[C@@H]4O[C@@H]4[C@H](OC(C)=O)[C@]23C)[C@@H]2[C@@H](O)[C@@H]3[C@H]([C@H](C)C=C4OC(=O)[C@@](C)(O)[C@@]43C)[C@@]2(C)[C@H]1OC(C)=O [Taccalonolide I, reference compound] | – | > 10 µM | – |
